Data from the supplement of paper PMC8617591.

Columns and labels:
[1] = test system: Mycobacterium tuberculosis Erdman (autoluminescent); experiment: total FIC50 (Loewe) at 50% inhibition, three-drug combination (log2); higher = more antagonistic
Description: (§1)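 DiaMOND equipotent three-drug combination dose responses (10 doses, 1.5- or 2-fold spacing, centred on IC90) against autoluminescent M. tuberculosis Erdman in 8 in vitro models. Read-out is OD600, or luminescence for the intracellular and dormancy models, normalised to untreated wells. Hill-fit Einf, AUC25 and GRinf are potency metrics; FIC50 and FIC90 are total Loewe fractional inhibitory concentrations as log2 (negative = synergy).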

[2] = test system: Mycobacterium tuberculosis Erdman (autoluminescent); experiment: total FIC90 (Loewe) at 90% inhibition, three-drug combination (log2); higher = more antagonistic
Description: as §1

[3] = test system: Mycobacterium tuberculosis Erdman (autoluminescent); experiment: Einf, fitted maximum growth inhibition of three-drug combination (fraction); higher = stronger maximal inhibition
Description: as §1

[4] = test system: Mycobacterium tuberculosis Erdman (autoluminescent); experiment: AUC25, normalised area under dose response up to IC25 (three-drug combination) (fraction (0-1)); higher = more potent at low dose
Description: as §1

[5] = test system: Mycobacterium tuberculosis Erdman (autoluminescent); experiment: GRinf, maximum normalised growth rate inhibition (three-drug combination) (unitless (-1 to 1)); higher = less effect (negative = killing)
Description: as §1

COc1nc2ccc(Br)cc2cc1[C@@H](c1ccccc1)[C@@](O)(CCN(C)C)c1cccc2ccccc12 [bedaquiline] + CC[C@@H](CO)NCCN[C@@H](CC)CO [ethambutol] + COc1c(N2C[C@@H]3CCCN[C@@H]3C2)c(F)cc2c(=O)c(C(=O)O)cn(C3CC3)c12 [moxifloxacin]
Conditions	AUC25, [4]	Einf, [3]	GRinf, [5]	total FIC50, [1]	total FIC90, [2]
in vitro model: acidic pH 5.7, time point: constant (~7 days, model-specific)	0.0871	0.818	-0.484	0.542	–
in vitro model: acidic pH 5.7, time point: terminal (~4-5 doublings, model-specific)	0.0798	0.968	-0.239	0.896	0.318
in vitro model: intracellular J774, time point: constant = terminal	–	0.951	-0.177	–	-0.597

Conditions	AUC25, [4]	Einf, [3]	GRinf, [5]	total FIC50, [1]	total FIC90, [2]
in vitro model: butyrate, time point: constant (~7 days, model-specific)	0.0669	0.943	-0.107	0.634	–
in vitro model: butyrate, time point: terminal (~4-5 doublings, model-specific)	0.0565	0.976	-0.091	0.608	0.135
in vitro model: cholesterol 0.05 mM, time point: constant (~7 days, model-specific)	0.0787	0.746	-0.304	0.605	–
in vitro model: cholesterol 0.05 mM, time point: terminal (~4-5 doublings, model-specific)	0.0645	0.902	-0.132	1.36	0.517
in vitro model: cholesterol-high 0.2 mM, time point: constant (~7 days, model-specific)	0.0262	0.947	-0.654	1.13	–
in vitro model: cholesterol-high 0.2 mM, time point: terminal (~4-5 doublings, model-specific)	0.0315	1	-0.729	1.33	1.07
in vitro model: dormancy (butyrate + nitrate, low O2), time point: constant (~7 days, model-specific)	0.14	0.884	0.39	1.02	–
in vitro model: dormancy (butyrate + nitrate, low O2), time point: terminal (~4-5 doublings, model-specific)	0.114	0.987	-0.126	0.343	0.644
in vitro model: standard 7H9 glycerol, time point: constant = terminal	0.0556	0.955	-0.0832	0.482	0.479
in vitro model: valerate, time point: constant (~7 days, model-specific)	0.0922	0.906	-0.0299	0.726	–
in vitro model: valerate, time point: terminal (~4-5 doublings, model-specific)	0.0526	0.939	-0.0195	0.757	0.289

COc1nc2ccc(Br)cc2cc1[C@@H](c1ccccc1)[C@@](O)(CCN(C)C)c1cccc2ccccc12 [bedaquiline] + CC[C@@H](CO)NCCN[C@@H](CC)CO [ethambutol] + NC(=O)c1cnccn1 [pyrazinamide]
Conditions	AUC25, [4]	Einf, [3]	GRinf, [5]	total FIC50, [1]	total FIC90, [2]
in vitro model: acidic pH 5.7, time point: constant (~7 days, model-specific)	0.0897	0.873	-0.571	-0.0886	–
in vitro model: acidic pH 5.7, time point: terminal (~4-5 doublings, model-specific)	0.0657	0.97	-0.4	0.412	-0.299
in vitro model: intracellular J774, time point: constant = terminal	–	0.975	-0.486	–	-0.0128

Conditions	AUC25, [4]	Einf, [3]	GRinf, [5]	total FIC50, [1]	total FIC90, [2]
in vitro model: butyrate, time point: constant (~7 days, model-specific)	0.0804	0.958	-0.23	0.369	–
in vitro model: butyrate, time point: terminal (~4-5 doublings, model-specific)	0.0692	0.98	-0.518	0.327	-0.0291
in vitro model: cholesterol 0.05 mM, time point: constant (~7 days, model-specific)	0.0893	0.735	-0.275	–	–
in vitro model: cholesterol 0.05 mM, time point: terminal (~4-5 doublings, model-specific)	0.113	0.942	-0.531	1.2	–
in vitro model: cholesterol-high 0.2 mM, time point: constant (~7 days, model-specific)	0.0376	0.954	-0.425	1.15	–
in vitro model: cholesterol-high 0.2 mM, time point: terminal (~4-5 doublings, model-specific)	0.0549	1	-0.723	1	1.04
in vitro model: dormancy (butyrate + nitrate, low O2), time point: constant (~7 days, model-specific)	0.11	0.818	0.489	0.665	–
in vitro model: dormancy (butyrate + nitrate, low O2), time point: terminal (~4-5 doublings, model-specific)	0.106	0.99	-0.119	0.467	0.729
in vitro model: standard 7H9 glycerol, time point: constant = terminal	0.0685	0.924	0.0247	0.382	–
in vitro model: valerate, time point: constant (~7 days, model-specific)	0.0945	0.901	-0.0908	0.734	–
in vitro model: valerate, time point: terminal (~4-5 doublings, model-specific)	0.0602	0.954	-0.0443	0.806	-0.297

COc1nc2ccc(Br)cc2cc1[C@@H](c1ccccc1)[C@@](O)(CCN(C)C)c1cccc2ccccc12 [bedaquiline] + CC[C@@H](CO)NCCN[C@@H](CC)CO [ethambutol] + NNC(=O)c1ccncc1 [isoniazid]
Conditions	AUC25, [4]	Einf, [3]	GRinf, [5]	total FIC50, [1]	total FIC90, [2]
in vitro model: acidic pH 5.7, time point: constant (~7 days, model-specific)	0.112	0.858	-0.682	0.0458	–
in vitro model: acidic pH 5.7, time point: terminal (~4-5 doublings, model-specific)	0.0484	0.953	-0.339	0.537	-0.855
in vitro model: intracellular J774, time point: constant = terminal	–	0.988	-0.401	–	-0.307

Conditions	AUC25, [4]	Einf, [3]	GRinf, [5]	total FIC50, [1]	total FIC90, [2]
in vitro model: butyrate, time point: constant (~7 days, model-specific)	0.0535	0.943	-0.0949	0.537	–
in vitro model: butyrate, time point: terminal (~4-5 doublings, model-specific)	0.0425	0.975	-0.105	0.472	-0.153
in vitro model: cholesterol 0.05 mM, time point: constant (~7 days, model-specific)	0.0741	0.695	-0.191	0.858	–
in vitro model: cholesterol 0.05 mM, time point: terminal (~4-5 doublings, model-specific)	0.0839	0.891	-0.205	1.12	0.995
in vitro model: cholesterol-high 0.2 mM, time point: constant (~7 days, model-specific)	0.026	0.998	-0.751	1.05	–
in vitro model: cholesterol-high 0.2 mM, time point: terminal (~4-5 doublings, model-specific)	0.0384	1	-0.702	1.09	0.96
in vitro model: dormancy (butyrate + nitrate, low O2), time point: constant (~7 days, model-specific)	0.121	0.849	0.491	1.04	–
in vitro model: dormancy (butyrate + nitrate, low O2), time point: terminal (~4-5 doublings, model-specific)	0.0982	0.987	-0.0322	0.301	0.198
in vitro model: standard 7H9 glycerol, time point: constant = terminal	0.0658	0.957	-0.0846	0.398	–
in vitro model: valerate, time point: constant (~7 days, model-specific)	0.116	0.912	-0.0812	0.656	–
in vitro model: valerate, time point: terminal (~4-5 doublings, model-specific)	0.0717	0.954	-0.0498	0.744	0.58

COc1nc2ccc(Br)cc2cc1[C@@H](c1ccccc1)[C@@](O)(CCN(C)C)c1cccc2ccccc12 [bedaquiline] + CC[C@@H](CO)NCCN[C@@H](CC)CO [ethambutol] + O=[N+]([O-])c1cn2c(n1)OC[C@@H](OCc1ccc(OC(F)(F)F)cc1)C2 [pretomanid]
Conditions	AUC25, [4]	Einf, [3]	GRinf, [5]	total FIC50, [1]	total FIC90, [2]
in vitro model: acidic pH 5.7, time point: constant (~7 days, model-specific)	0.0902	0.854	-0.482	0.869	–
in vitro model: acidic pH 5.7, time point: terminal (~4-5 doublings, model-specific)	0.0847	0.982	-0.316	0.639	0.498
in vitro model: intracellular J774, time point: constant = terminal	–	0.938	-0.203	–	-1.11

Conditions	AUC25, [4]	Einf, [3]	GRinf, [5]	total FIC50, [1]	total FIC90, [2]
in vitro model: butyrate, time point: constant (~7 days, model-specific)	0.059	0.925	-0.0548	0.544	–
in vitro model: butyrate, time point: terminal (~4-5 doublings, model-specific)	0.0482	0.966	-0.0543	0.327	-0.226
in vitro model: cholesterol 0.05 mM, time point: constant (~7 days, model-specific)	0.0996	0.781	-0.351	0.964	–
in vitro model: cholesterol 0.05 mM, time point: terminal (~4-5 doublings, model-specific)	0.0849	0.927	-0.277	1.08	1.26
in vitro model: cholesterol-high 0.2 mM, time point: constant (~7 days, model-specific)	0.0639	0.893	-0.294	1.17	–
in vitro model: cholesterol-high 0.2 mM, time point: terminal (~4-5 doublings, model-specific)	0.0509	1	-0.825	1.06	1.39
in vitro model: dormancy (butyrate + nitrate, low O2), time point: constant (~7 days, model-specific)	0.123	0.894	0.353	0.967	–
in vitro model: dormancy (butyrate + nitrate, low O2), time point: terminal (~4-5 doublings, model-specific)	0.115	0.997	-0.265	0.317	0.645
in vitro model: standard 7H9 glycerol, time point: constant = terminal	0.0898	0.972	-0.0976	0.231	–
in vitro model: valerate, time point: constant (~7 days, model-specific)	0.139	0.897	-0.0325	-0.239	–
in vitro model: valerate, time point: terminal (~4-5 doublings, model-specific)	0.0867	0.948	-0.0164	0.257	0.215

COc1nc2ccc(Br)cc2cc1[C@@H](c1ccccc1)[C@@](O)(CCN(C)C)c1cccc2ccccc12 [bedaquiline] + CO[C@H]1/C=C/O[C@@]2(C)Oc3c(C)c(O)c4c(O)c(c(/C=N/N5CCN(C6CCCC6)CC5)c(O)c4c3C2=O)NC(=O)/C(C)=C\C=C\[C@H](C)[C@H](O)[C@@H](C)[C@@H](O)[C@@H](C)[C@H](OC(C)=O)[C@@H]1C [rifapentine] + CO[C@H]1/C=C/O[C@@]2(C)Oc3c(C)c(O)c4c(O)c(c(/C=N/N5CCN(C)CC5)c(O)c4c3C2=O)NC(=O)/C(C)=C\C=C\[C@H](C)[C@H](O)[C@@H](C)[C@@H](O)[C@@H](C)[C@H](OC(C)=O)[C@@H]1C [rifampicin]
Conditions	AUC25, [4]	Einf, [3]	GRinf, [5]	total FIC50, [1]	total FIC90, [2]
in vitro model: acidic pH 5.7, time point: constant (~7 days, model-specific)	0.0935	0.893	-0.273	0.903	–
in vitro model: acidic pH 5.7, time point: terminal (~4-5 doublings, model-specific)	0.082	0.985	-0.265	0.765	0.574
in vitro model: intracellular J774, time point: constant = terminal	–	0.925	-0.129	–	0.499

Conditions	AUC25, [4]	Einf, [3]	GRinf, [5]	total FIC50, [1]	total FIC90, [2]
in vitro model: butyrate, time point: constant (~7 days, model-specific)	0.119	0.965	-0.195	0.199	-0.101
in vitro model: butyrate, time point: terminal (~4-5 doublings, model-specific)	0.102	0.987	-0.131	0.144	0.454
in vitro model: cholesterol 0.05 mM, time point: constant (~7 days, model-specific)	0.118	0.73	-0.233	0.198	–
in vitro model: cholesterol 0.05 mM, time point: terminal (~4-5 doublings, model-specific)	0.0915	0.927	-0.216	0.249	0.0937
in vitro model: cholesterol-high 0.2 mM, time point: constant (~7 days, model-specific)	0.0646	0.957	-0.49	0.444	-0.0134
in vitro model: cholesterol-high 0.2 mM, time point: terminal (~4-5 doublings, model-specific)	0.0574	0.998	-0.604	0.544	0.3
in vitro model: dormancy (butyrate + nitrate, low O2), time point: constant (~7 days, model-specific)	0.0847	0.905	0.174	0.141	0.723
in vitro model: dormancy (butyrate + nitrate, low O2), time point: terminal (~4-5 doublings, model-specific)	0.0726	0.982	-0.165	0.273	0.653
in vitro model: standard 7H9 glycerol, time point: constant = terminal	0.0706	0.924	-0.0268	0.258	0.35
in vitro model: valerate, time point: constant (~7 days, model-specific)	0.046	0.873	-0.0628	0.679	–
in vitro model: valerate, time point: terminal (~4-5 doublings, model-specific)	0.028	0.951	-0.0371	0.579	0.302
